Counter-ions that a name gives are not always drawn.
Experiments:
[1] = system: diabetic polyneuropathy; conditions: cited from earlier work
[2] = system: uremic neuropathy; conditions: cited from earlier work
[3] = system: cryptogenic neuropathy; experiment: Case reports: patients with cryptogenic neuropathy treated with R-LA; type: in vivo, human
Description: A patient with cryptogenic neuropathy was treated with an agent according to the present invention. For that purpose a daily oral dose of 50 mg of R-LA (s.d.) was given over a time period of 8 weeks in a customary multivitamin presentation form. The disease is presented by a loss of sensory perception in the feet and a severe impairment of perspiration.
A patient with cryptogenic neuropathy was treated with an agent according to the present invention. For that purpose a daily oral dose of 50 mg of R-LA (s.d.) was given over a time period of 12 weeks.
A patient with cryptogenic neuropathy was treated with an agent according to the present invention. For that purpose 50 mg of R-LA (s.d.) in an oral multivitamin preparation together with γ-linolenic acid was given. The administration was at first 2 times a day for 6 weeks and then 1 time a day. The lost sensation in the tips of the fingers and toes (Semmes Weinstein monofilament) recovered after 4 weeks.
A patient with cryptogenic neuropathy was treated with an agent according to the present invention. For that purpose a daily oral dose of 100 mg of R-LA as Na salt was given over a time period of 8 weeks. The incontinence and also the control over the bladder were improved after 3 weeks.
A patient with cryptogenic neuropathy was treated with an agent according to the present invention. For that purpose at first a dose of 300 mg of R-LA (Na salt) was given 1 time a day over a time period of 2 weeks and then a dose of 100 mg was given 1 time a day over a time period of 6 weeks. Due to inconsequent taking of the dose on average the agent was only administered every second day. The dryness of the eyes has not changed during the first 3 weeks, but after 4 weeks the use of eye drops was reduced.
A patient with cryptogenic neuropathy was treated with an agent according to the present invention. For that purpose at first a daily oral dose of 100 mg of R-LA was given over a time period of one week and then a reduction to a dose of 50 mg for 6 weeks with continuous co-medication of gabapentin followed.
A patient with cryptogenic neuropathy was treated with an agent according to the present invention. For that purpose at first a daily oral dose of 100 mg of R-LA was given over a time period of two weeks. Then a reduction to a dose of 50 mg followed which was continued over 3 weeks. Subsequently the treatment was continued with the administration of 25 mg over further 3 weeks. […] Sharp pain which occurred occasionally was unchanged.
A patient with cryptogenic neuropathy was treated with an agent according to the present invention. For that purpose at first a daily oral dose of 100 mg of R-LA was given over a time period of four weeks. Then an anti-oxidative multivitamin preparation together with 50 mg of R-LA was given over 4 weeks.
A patient with cryptogenic neuropathy was treated with an agent according to the present invention. For that purpose at first a daily oral dose of 50 mg of R-LA was given over a time period of six weeks. Then an anti-oxidative multivitamin preparation without R-LA was given orally over 4 weeks. The patient suffered from numbness and the loss of sensory perception in the lower limbs. Due to a possible immunologic background ibuprofen was given as a long-term medication. […] The heart pains during stair climbing disappeared.
A patient with cryptogenic neuropathy was treated with an agent according to the present invention. For that purpose a daily dose of 300 mg of R-LA was given over a time period of four weeks together with a continued administration of a vitamin B-combination medication. […] Stomach pain and feeling of abdominal fullness were improved at the end of that period.
A patient with cryptogenic neuropathy was treated with an agent according to the present invention. For that purpose a daily oral dose of 400 mg of R-LA (K salt) was given over a time period of one week. […] 3 months later a formulation of 100 mg (Na salt) was given. […]

[4] = system: cryptogenic neuropathy; conditions: in vivo; cited from earlier work
[5] = Example 11, 400 mg daily oral (K salt) over one week
[6] = Example 1, 50 mg daily oral (s.d.) in multivitamin presentation form, after 8 weeks
[7] = Example 9, 50 mg daily oral over six weeks, ibuprofen long-term medication

In the case of `O=C(O)CCCCC1CCSS1` (racemic) [rac-LA, 5-(1,2-dithiolan-3-yl)valeric acid], the “efficacy in controlled clinical trials” value ([1]; human, in vivo) is given as “negative”, the “efficacy in first short-time pilot study (ALADIN Study)” value ([1]; i.v. treatment, 3-week multicentre randomized controlled trial) is given as “verified the historic impressions of the efficacy” and the neuropathic deficits ([1]; oral long-term therapy) is given as “appeared to deteriorate”. The “efficacy in pivotal placebo-controlled double-blind multicentre trials (ALADIN II, ALADIN III)” value ([1]; short-term use (i.v.) or long-term use (p.o.)) was “could not be reproduced” and the “result of first clinical trial” value [2] was “negative results”.
With `O=C(O)CCCC[C@@H]1CCSS1` [R-LA (K salt)] the “hyperhidrosis at the face” value [3, 5] was “not disappeared” and the “sensory perception in the lower limbs” value [3, 5] was “improved from severe to moderate”.
With `O=C(O)CCCC[C@@H]1CCSS1` [R-LA (Na salt)] the “incontinence and control over the bladder” value ([3]; Example 4, 100 mg daily oral as Na salt, after 3 weeks) was “improved”, the chronic obstipation ([3]; Example 4, 100 mg daily oral as Na salt, after 5 weeks) was “no longer a problem” and the stool frequency ([3]; Example 4, 100 mg daily oral as Na salt, after 5 weeks, 2 to 3 times a week before) was 5 times a week. The “dryness of the eyes” value ([3]; Example 5, 300 mg 1 time a day for 2 weeks, then 100 mg for 6 weeks (on average taken every second day), first 3 weeks) was “not changed”, the “feeling of burning in the feet” value ([3]; Example 5, 300 mg for 2 weeks, then 100 mg, after 3 weeks) was “reduced after 3 weeks (from severe to moderate)” and the “use of eye drops” value ([3]; Example 5, 300 mg for 2 weeks, then 100 mg, after 4 weeks) was “reduced”. The “feeling of burning in the feet” value ([3]; Example 5, during the weeks following week 3) was “unchanged”.
With `O=C(O)CCCC[C@@H]1CCSS1` [R-LA, (R)-5-(1,2-dithiolan-3-yl)valeric acid] the perspiration [3, 6] was “moderately improved”, the “sensory perception in the feet” value [3, 6] was “moderately improved” and the “feeling of burning and tingling in the feet and hands” value ([3]; Example 2, 50 mg daily oral (s.d.) over 12 weeks) was “improved moderately”. The “symptoms after the termination of the treatment” value ([3]; Example 2, after 12 weeks of 50 mg daily oral) was “became worse again”, the “lost sensation in the tips of the fingers and toes (Semmes Weinstein monofilament)” value ([3]; Example 3, 50 mg in oral multivitamin preparation with γ-linolenic acid, 2 times a day, after 4 weeks) was “recovered” and the “function improvement on halving of the dose” value ([3]; Example 3, 2 times a day for 6 weeks, then 1 time a day) was “not influenced”. The “neurological pain in the feet” value ([3]; Example 6, 100 mg daily oral for one week, then 50 mg for 6 weeks, co-medication of gabapentin) was “unchanged”, the “perception of pain stimulus with a needle at the feet” value ([3]; Example 6, 100 mg for one week, then 50 mg, gabapentin co-medication, after 3 weeks, not perceived at first) was “perceived moderately” and the “feeling of burning in the feet” value ([3]; Example 7, 100 mg daily oral for two weeks, then 50 mg, after 3 weeks) was “improved from severe to moderate”. For the same compound, the “sharp pain which occurred occasionally” value ([3]; Example 7, 100 mg for 2 weeks, 50 mg for 3 weeks, 25 mg for 3 weeks) was “unchanged”, the “feeling of burning in the feet” value ([3]; Example 7, 100 mg for two weeks, then 50 mg for 3 weeks, after 5 weeks) was “disappeared completely” and the “feeling of burning in the feet” value ([3]; Example 8, 100 mg daily oral, after 2 weeks) was “improved from severe to moderate”. The “feeling of burning in the feet” value ([3]; Example 8, 100 mg for four weeks, then anti-oxidative multivitamin preparation with 50 mg, after 6 weeks) was “became worse again”, the “heart pains during stair climbing” value [3, 7] was “disappeared” and the numbness [3, 7] was “unchanged”. The “sensory perception in the lower limbs” value ([3]; Example 9, 50 mg daily oral, ibuprofen long-term medication, after 3 weeks, then stable) was “improved from severe to moderate”, the “sensory perception after termination of R-LA” value ([3]; Example 9, 3 weeks after the termination of the administration) was “became worse again” and the “perception of pain stimulus at the feet by means of a sharp needle” value ([3]; Example 10, 300 mg daily with vitamin B-combination medication, after 2 weeks) was “perceived again”. For the same compound, the “stomach pain and feeling of abdominal fullness” value ([3]; Example 10, 300 mg daily with vitamin B-combination medication, at the end of four weeks) was “improved”, the “dryness at the feet” value ([3]; Example 12, 100 mg twice a day, after 2 weeks) was “improved” and the “dryness at the hands” value ([3]; Example 12, 100 mg twice a day, after 3 weeks) was “improved”.
In the case of `C[C@]12CCC(=O)C=C1CC[C@@H]1[C@@H]2C(=O)C[C@@]2(C)[C@H]1CC[C@]2(O)C(=O)CO` [cortisone], the “outcome of therapy of cryptogenic neuropathy” value [4] is listed as “unsuccessful”.

Reference: patent US8722013B2, “Use of R(+)-alpha-lipoic acid for cryptogenic neuropathy” (Encrypta GmbH, priority 2007, dated 2014)
